From US5455240A, “Modulators of pneumococcal adhesion to cellular targets involving the platelet activating factor receptor, and uses thereof” (The Rockefeller University, priority 1994, dated 1995)

Key:
[1] = system: type II lung cells and vascular endothelial cells; experiment: Pneumococcal adherence to EC and LC, results stated for both cell types together; type: cell-based, human; conditions: for IC50: Homo sapiens, Endothelial cell, 0.5 h, activated cells (IL-1α-stimulated LC, TNFα-stimulated EC), R6 10^7 cfu/ml, 30 min, 37° C., read-out: ED50 of inhibition of pneumococcal adherence; for inhibition of adherence to resting cells by single sugars: resting EC and LC
Description: (§1) FIG. 2. Effect of PAF receptor antagonists on pn[…] to IL-1α-stimulated cultured human type II lung cells (A) and TNFα-stimulated vascular endothelial cells (B). Cytokine stimulated monolayers were incubated (10 min, 37° C.) with either albumin buffer (--) or increasing concentrations of the PAF receptor antagonists L659,989 ( ) and WEB 2086 ( ) and R6 pneumococci (10^7 cfu/ml) allowed to adhere to the monolayers for 30 min at 37° C. Control adherence in the absence of cytokine stimulation is indicated by a horizontal dotted line (------). Adherent bacteria were determined as the number of attached bacteria per 100 lung or endothelial cells. Results are the means ±SD for duplicate wells in at least six independent experiments. *p<0.05 compared with cytokine-stimulation in the absence of antagonists.
FIG. 4. Effect of simple sugars on adherence of R6 to resting and cytokine-stimulated human cultured type II pneumocytes (A) and vascular endothelial cells (B). R6 (10^7 cfu/ml) was exposed to various simple sugars (15 min, room temperature) and then co-incubated with either resting (.quadrature.) or cytokine-stimulated ( ) monolayers for 30 min. Pn[…] to a designated sugar was defined as bacterial adherence to 100 host cells in the absence of sugar-bacterial adherence to 100 host cells in the presence of sugar. Results are the means ±SD for duplicate wells in at least six independent experiments. Glc=D-glucose, Gal=D-galactose, Fuc=L-fucose, GalNAc=N-acetyl-D-galactosamine, GlcNAc=N-acetyl-D-glucosamine, Man=D-mannose, NANA=sialic acid, Lac=lactose and 2-ADGG=2-acetamido-2-deoxy-3-O-B-D-galactopyranosyl-D-galactopyranose.
(§2) The contribution of carbohydrate recognition to pn[…] to cytokine-stimulated EC and LC was tested using competition assays performed in the presence of monosaccharides (1-50 mM) or glycoconjugates (0.003-2 mM) the role of carbohydrate recognition in pn[…] is disclosed more fully in copending application Ser. No. 08/254,577, Attorney Docket No. 600-1-084, filed Jun. 6, 1994 by Tuomanen and Cundell, entitled "MODULATORS OF PN[…] TO PULMONARY AND VASCULAR CELLS AND DIAGNOSTIC AND THERAPEUTIC APPLICATIONS"; hereinafter Tuomanen and Cundell. Bacteria were pre-incubated for 15 min at room temperature with final concentrations of the sugars as stated, centrifuged (3,000 rpm, 3 min) to remove unbound sugar, resuspended to 1×10^7 cfu/ml in albumin buffer and added to the adherence assay. […] Adherence of bacteria lacking choline to activated cells in the presence and absence of GlcNAc was 121 ±11 and 119 ±5/100 EC and 137 ±7 and 135 ±13/100 LC, respectively.

PAF receptor [2] = biological target: T1, PAF receptor (Homo sapiens, UniProt P25105); experiment: Pneumococcal adherence to U937 and COS-7 cells transfected with PAF receptor; type: cell-based; design: pneumococcal adherence; conditions: for pneumococcal adherence to PAF receptor-transfected cells: transfected COS-7 and U937 cells, antagonists 1 μM (FIG. 3); for adherence of R6 to U937 cells in presence of glycoconjugate: PAF receptor-transfected U937, input 10^7 cfu/ml, 296 ±30 without glycoconjugates
T1 sequence (P25105 whole entry): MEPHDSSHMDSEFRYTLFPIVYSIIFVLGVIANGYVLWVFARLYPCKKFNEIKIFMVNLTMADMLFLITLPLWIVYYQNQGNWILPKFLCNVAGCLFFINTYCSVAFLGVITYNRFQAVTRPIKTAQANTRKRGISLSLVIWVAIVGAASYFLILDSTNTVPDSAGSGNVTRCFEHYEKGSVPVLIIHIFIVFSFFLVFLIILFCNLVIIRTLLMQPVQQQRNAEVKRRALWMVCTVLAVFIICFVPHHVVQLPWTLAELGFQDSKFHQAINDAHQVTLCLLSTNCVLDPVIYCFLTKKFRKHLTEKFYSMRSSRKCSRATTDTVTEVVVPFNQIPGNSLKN
Description: FIG. 3. Effect on pneumococcal adherence to PAF receptors of receptor deglycosylation, the antagonists WEB 2086 and L659,989 (1 μM) and removal of phosphorylcholine from the pneumococcal cell wall (Tuomanen et al., 1985, J. Infect. Dis. 151: 859).
Recently, the PAF receptor was cloned from human leukocytes and successfully transfected into kidney epithelial cells (Kunz et al, supra). To determine if pneumococci could directly adhere to PAF receptors, human U937 cells (ATCC CRL1593; embryonic kidney epithelial cells stably transfected with the SV40 large T-antigen) and COS-7 cells (ATCC CRL 1651; monkey kidney) were transfected with the human PAF receptor cDNA (Gerard and Gerard, 1994, J. Immunol 152: 793) or the cDNA containing a Flag construct (Kunz et al., supra) by electroporation (Kunz et al., supra) or the addition of cationic liposomes (Gerard and Gerard, supra). […] Controls cells were transfected with vector alone. Monolayers of transfected and control cells were prepared in 60-well Terasaki dishes. Monolayers of COS-7 and U937 cells are prepared in 48-well culture dishes using the methods previously described for EC and LC (Geelen et al., 1993, Infect. Immun. 61: 1538).

[3] = system: type II lung epithelial cells (LC); experiment: Pneumococcal adherence to human type II lung epithelial cell monolayers, resting or IL-1α-stimulated; type: cell-based; conditions: for pneumococcal adherence to resting LC in presence of antagonist: 1 μM antagonist, without antagonist 270 ±10; for Number of pneumococci adherent to designated receptor on host cell: 2 mM sugar, adherence per 100 host cells without sugar minus with sugar
Description: (§3) FIG. 1. Adherence of pneumococci to cytokine-stimulated human cultured type II pneumocytes (A) and vascular endothelial cells (B). Monolayers in 60 well Terasaki dishes were stimulated with IL-1α (type II lung cells; 5 ng/ml, 4 h at 37° C.; Rozdzinski et al., 1993, J. Exp. Med. 178: 917) and TNFα (vascular endothelial cells; 10 ng/ml, 3 h at 37° C.; Elias et al., 1990, Am. J. Respir. Cell. Mol. Biol. 3: 13). Pneumococci R6 and AII were cultured for 18 h on trypticase soy agar containing 3% sheep blood, labelled with fluorescein isothiocyanate and adjusted to 10^5 -10^7 cfu/ml (Geelen et al., 1993, Infect. Immun. 61: 1538), and co-incubated with the monolayers. Control adherence in the absence of cytokine is indicated by a hatched line (-----). Bacteria adherent to cytokine-stimulated (.cndot.) and resting (.smallcircle.) monolayers were determined as the number of attached bacteria per 100 lung or endothelial cells. Results are the means ±SD for duplicate wells in at least six independent experiments.
as §1
(§4) The adherence of S. pneumoniae encapsulated strain AII (serotype 2) and the isogeneic unencapsulated strain R6 to human vein endothelial cells (EC) and type II lung epithelial cells (LC) was quantitated before and after stimulation of the eukaryotic cells with IL-1 or TNF. Adherence to EC was increased […] by TNFα stimulation (FIG. 1). […] (increase from 240 ±10 to 363 ±13 bacteria/100 EC; increase from 270 ±15 to 355 ±18 bacteria/100 LC). Adherence was not affected by the presence of a type II capsule. At an input concentration of 10^7 cfu/ml, adherence of AII and R6 to 100 TNFα-stimulated EC was 405 ±14 and 400 ±10, respectively.
as §2

[4] = system: human vein endothelial cells (EC); experiment: Pneumococcal adherence to human vein endothelial cell monolayers, resting or TNFα-stimulated; type: cell-based; conditions: for pneumococcal adherence to resting EC in presence of antagonist: 1 μM antagonist, without antagonist 240 ±15; for Number of pneumococci adherent to designated receptor on host cell: 2 mM sugar, adherence per 100 host cells without sugar minus with sugar
Description: as §3, §1, §4, §2

PAF receptor [5] = biological target: T1, PAF receptor; experiment: Activation of PAF receptor-transfected COS-7 cells, 3H incorporation in inositoltriphosphate (IP3); type: cell-based; design: IP3 (3H-inositol) response
Description: FIG. 6. Pneumococci activate the PAF receptor. COS cells in a monolayer were treated with control, platelet activating factor ([…]), pneumococci (10^8 bacteria/ml), ethanolamine-cultured pneumococci (10^8 bacteria/ml), PAF+L659,989, and pneumococci+L659,989. Activation was measured by detecting the level of incorporation of ^3 H in inositoltriphosphate, which is reported as the percentage above background .
Activation of COS-7 cells transfected with the PAF receptor was assayed. The cells were exposed to medium (control), platelet activating factor ([…]), pneumococci (10^8 bacteria/ml), and ethanolamine cultured pneumococci (10^8 bacteria/ml). Inhibition of activation by PAF and pneumococci with the PAF receptor antagonist L659,989 (2 μg/ml) was also measured. Cellular activation was measured by detecting incorporation of ^3 H in inositoltriphosphate (IP3).

PAF receptor [6] = biological target: T1, PAF receptor; design: IP3 (3H-inositol) response; conditions: Hwang and Lam, 1991; cited from earlier work
[7] = monosaccharides 1-50 mM (FIG. 4)

Cc1nnc2n1-c1sc(CCC(=O)N3CCOCC3)cc1C(c1ccccc1Cl)=NC2 [WEB 2086]
IC50 [1]: 10 nM
pneumococcal adherence to PAF receptor-transfected cells (PAF receptor [2]): inhibit pneumococcal adherence
pneumococcal adherence to resting LC in presence of antagonist ([3]; resting LC): 264 ±8 bacteria
pneumococcal adherence to resting EC in presence of antagonist ([4]; resting EC): 224 ±12 bacteria/EC

CC(=O)N[C@H]1C(O)O[C@H](CO)[C@H](O)[C@@H]1O (stereo partly drawn) [GalNAc, N-acetyl-D-galactosamine]
inhibition of adherence to resting cells by single sugars [1, 7]: effective in inhibiting adherence to resting cells

asialo-GM2
adherence of R6 to U937 cells in presence of glycoconjugate (PAF receptor [2]): 327 ±39
Number of pneumococci adherent to designated receptor on host cell ([3]; LC + IL-1α, control 355 ± 18): 205 ± 9
Number of pneumococci adherent to designated receptor on host cell ([3]; resting LC, control 270 ± 15): 140 ± 10
Number of pneumococci adherent to designated receptor on host cell ([4]; EC + TNFα, control 415 ± 25): 180 ± 13
Number of pneumococci adherent to designated receptor on host cell ([4]; resting EC, control 240 ± 10): 140 ± 12

O=C[C@@H](O)[C@@H](O)[C@H](O)[C@H](O)CO [D-mannose]
inhibition of adherence to resting cells by single sugars [1, 7]: effective in inhibiting adherence to resting cells

globoside
adherence of R6 to U937 cells in presence of glycoconjugate (PAF receptor [2]): 318 ±30
Number of pneumococci adherent to designated receptor on host cell ([3]; LC + IL-1α, control 355 ± 18): 200 ± 11
Number of pneumococci adherent to designated receptor on host cell ([3]; resting LC, control 270 ± 15): 140 ± 10
Number of pneumococci adherent to designated receptor on host cell ([4]; EC + TNFα, control 415 ± 25): 200 ± 9
Number of pneumococci adherent to designated receptor on host cell ([4]; resting EC, control 240 ± 10): 110 ± 8

TNFα
increase of pneumococcal adherence to EC by cytokine stimulation ([4]; TNFα 10 ng/ml, 3 h (FIG. 1)): ~ 70%

CCCCCCCCCCCCCCCCOCC(COP(=O)([O-])OCC[N+](C)(C)C)OC(C)=O (centres unmarked) [PAF, platelet activating factor]
3H incorporation in IP3 (receptor activation) (PAF receptor [5]; PAF 100 mM, transfected COS-7 cells (FIG. 6)): significant ^3 H incorporation in IP3
pneumococcal adherence to PAF receptor-transfected cells (PAF receptor [2]): inhibit pneumococcal adherence

CC(=O)N[C@H]1C(O)O[C@H](CO)[C@@H](O)[C@@H]1O (stereo partly drawn) [GlcNAc, N-acetyl-D-glucosamine]
inhibition of adherence to activated cells by single sugars ([1]; cytokine-stimulated EC and LC, monosaccharides 1-50 mM (FIG. 4)): became effective in activated cells
decrease of pneumococcal adherence to transfected cells (PAF receptor [2]; transfected COS-7 and U937 cells (FIG. 3)): about 40%
adherence of bacteria lacking choline to activated LC in presence of sugar ([3]; ethanolamine-grown pneumococci, activated LC, 135 ±13 without sugar): 137 ±7 /100 LC
adherence of bacteria lacking choline to activated EC in presence of sugar ([4]; ethanolamine-grown pneumococci, activated EC): 121 ±11 /100 EC

CCCOc1c(OC)cc([C@@H]2CC[C@@H](c3cc(OC)c(OC)c(OC)c3)O2)cc1S(C)(=O)=O (relative stereo) [L659,989]
oral activity (PAF receptor [6]): orally active
inhibition of PAF-mediated activation (PAF receptor [5]; L659,989 2 μg/ml, PAF 100 mM): almost completely inhibited
inhibition of pneumococcal-mediated activation (PAF receptor [5]; L659,989 2 μg/ml, pneumococci 10^8 bacteria/ml): almost completely inhibited
IC50 [1]: 50 nM
pneumococcal adherence to PAF receptor-transfected cells (PAF receptor [2]): inhibit pneumococcal adherence
pneumococcal adherence to resting LC in presence of antagonist ([3]; resting LC): 272 ±8 bacteria
pneumococcal adherence to resting EC in presence of antagonist ([4]; resting EC): 237 ±9 bacteria/EC

B1: IL-1: interleukin-1, cytokine used to stimulate cells (protein, UniProt P01583 113-271, looked up)
Interleukin-1 alpha: SAPFSFLSNVKYNFMRIIKYEFILNDALNQSIIRANDQYLTAAALHNLDEAVKFDMGAYKSSKDDAKITVILRISKTQLYVTAQDEDQPVLLKEMPEIPKTITGSETNLLFFWETHGTKNYFTSVAHPNLFIATKQDYWVCLAGGPPSITDFQILENQA
pneumococcal adherence to LC after cytokine stimulation ([3]; IL-1 stimulation, resting 270 ±15): 355 ±18 bacteria/100 LC
pneumococcal adherence to EC after cytokine stimulation ([4]; IL-1 stimulation, resting 240 ±10): 363 ±13 bacteria/100 EC
